19 molecules from patent publication US10072011B2, “Substituted bridged urea analogs as sirtuin modulators” (GlaxoSmithKline Intellectual Property (No.2) Limited, priority 2014, dated 2018) can be followed below.

The assay concerns the target T1, SIRT1 (Homo sapiens, UniProt Q96EB6).
T1 sequence (Q96EB6 1-747): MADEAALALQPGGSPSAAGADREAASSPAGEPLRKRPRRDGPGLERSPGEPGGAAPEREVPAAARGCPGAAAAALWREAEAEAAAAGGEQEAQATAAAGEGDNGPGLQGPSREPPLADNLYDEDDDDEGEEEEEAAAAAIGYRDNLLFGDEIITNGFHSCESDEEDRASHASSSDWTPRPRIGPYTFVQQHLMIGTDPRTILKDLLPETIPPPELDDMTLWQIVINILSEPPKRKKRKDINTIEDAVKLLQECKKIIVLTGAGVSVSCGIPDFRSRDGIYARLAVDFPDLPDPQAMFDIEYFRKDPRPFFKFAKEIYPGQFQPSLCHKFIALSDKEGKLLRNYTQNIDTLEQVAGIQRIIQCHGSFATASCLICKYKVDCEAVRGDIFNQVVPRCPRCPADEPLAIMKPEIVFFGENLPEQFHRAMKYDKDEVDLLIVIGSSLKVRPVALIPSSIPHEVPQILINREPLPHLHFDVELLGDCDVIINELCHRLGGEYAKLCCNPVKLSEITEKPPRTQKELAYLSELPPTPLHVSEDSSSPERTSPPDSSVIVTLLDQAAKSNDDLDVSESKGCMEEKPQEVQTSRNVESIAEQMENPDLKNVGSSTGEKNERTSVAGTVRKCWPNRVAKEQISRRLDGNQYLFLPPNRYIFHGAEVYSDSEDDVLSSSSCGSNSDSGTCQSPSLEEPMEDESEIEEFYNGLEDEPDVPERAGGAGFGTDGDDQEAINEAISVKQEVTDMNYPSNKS
Description: Trp mass spectrometry assay of SIRT1 activation (Ac-R-H-K-K(Ac)-W-NH2 peptide). The assay is classed as biochemical. Particulars: Trp peptide 0.5 μM, 120 μM βNAD+, 10 nM SIRT1, 25 min at 25° C.; for Emax: 25 min, relative to control (100%), read-out: TRP MAX RESP (percent maximum fold activation). Summed up:
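N-terminal His-tagged human SIRT1, expressed in BL21(DE3) and purified, was incubated 25 min with an acetylated Trp peptide and NAD plus test compound at varying concentrations, then quenched with formic acid. OAADPR or deacetylated peptide was quantified by mass spectrometry versus compound-free control; EC1.5 is the concentration giving 50% activity increase, with percent maximum activation.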

Turning to `Cn1cccc(NC(=O)N2c3nc(C(=O)NC4CC4)ccc3N3CC[C@H]2C3)c1=O` [Example 216, (4S)—N7-cyclopropyl-N5-(1-methyl-2-oxo-1,2-dihydropyridin-3-yl)-3,4-dihydro-1,4-methanopyrido[2,3-b][1,4]diazepine-5,7(2H)-dicarboxamide], the Emax was greater than 150% and the “TRP Activity (EC1.5, concentration of test compound that results in 150% activation of SIRT1)” value was “B (EC1.5 1-25 μM)”.

Regarding `C[C@@H](NC(=O)c1ccc2c(n1)N(C(=O)NCC(=O)N(C)C)[C@H]1CCN2C1)C(F)(F)F` [Example 217, (4S)—N5-(2-(dimethylamino)-2-oxoethyl)-N7-((R)-1,1,1-trifluoropropan-2-yl)-3,4-dihydro-1,4-methanopyrido[2,3-b][1,4]diazepine-5,7(2H)-dicarboxamide], the Emax is greater than 150% and the “TRP Activity (EC1.5, concentration of test compound that results in 150% activation of SIRT1)” value was “B (EC1.5 1-25 μM)”.

For `O=C(NCCCO)c1ccc2c(n1)N(C(=O)Nc1ccccn1)[C@H]1CCN2C1` [Example 218, (4S)—N7-(3-hydroxypropyl)-N5-(pyridin-2-yl)-3,4-dihydro-1,4-methanopyrido[2,3-b][1,4]diazepine-5,7(2H)-dicarboxamide], the Emax is greater than 150% and the “TRP Activity (EC1.5, concentration of test compound that results in 150% activation of SIRT1)” value is “B (EC1.5 1-25 μM)”.

As to `O=C(NCC1CC1)c1ccc2c(n1)N(C(=O)Nc1ccncn1)[C@H]1CCN2C1` [Example 219, (4S)—N7-(cyclopropylmethyl)-N5-(pyrimidin-4-yl)-3,4-dihydro-1,4-methanopyrido[2,3-b][1,4]diazepine-5,7(2H)-dicarboxamide], the Emax was greater than 150% and the “TRP Activity (EC1.5, concentration of test compound that results in 150% activation of SIRT1)” value is “B (EC1.5 1-25 μM)”.

As for `Cn1ncc2c(NC(=O)N3c4nc(C(=O)NCC(F)(F)F)ccc4N4CC[C@H]3C4)cccc21` [Example 220, (4S)—N5-(1-methyl-1H-indazol-4-yl)-N7-(2,2,2-trifluoroethyl)-3,4-dihydro-1,4-methanopyrido[2,3-b][1,4]diazepine-5,7(2H)-dicarboxamide], the Emax was greater than 150% and the “TRP Activity (EC1.5, concentration of test compound that results in 150% activation of SIRT1)” value is “B (EC1.5 1-25 μM)”.

For `O=C(NC1CC1)c1ccc2c(n1)N(C(=O)Nc1cnccn1)[C@H]1CCN2C1` [Example 222, (4S)—N7-cyclopropyl-N5-(pyrazin-2-yl)-3,4-dihydro-1,4-methanopyrido[2,3-b][1,4]diazepine-5,7(2H)-dicarboxamide], the Emax was greater than 150% and the “TRP Activity (EC1.5, concentration of test compound that results in 150% activation of SIRT1)” value is given as “B (EC1.5 1-25 μM)”.

For the molecule `O=C(N[C@@H](CO)C(F)(F)F)c1ccc2c(n1)N(C(=O)Nc1cccnc1)[C@H]1CCN2C1` [Example 224, (4S)—N5-(pyridin-3-yl)-N7-((S)-1,1,1-trifluoro-3-hydroxypropan-2-yl)-3,4-dihydro-1,4-methanopyrido[2,3-b][1,4]diazepine-5,7(2H)-dicarboxamide], the Emax was greater than 150% and the “TRP Activity (EC1.5, concentration of test compound that results in 150% activation of SIRT1)” value was “B (EC1.5 1-25 μM)”.

`C[C@@H](NC(=O)c1ccc2c(n1)N(C(=O)Nc1cc(C(=O)O)ccn1)[C@H]1CCN2C1)C(F)(F)F` [Example 225, 2-((4S)-7-(((R)-1,1,1-trifluoropropan-2-yl)carbamoyl)-2,3,4,5-tetrahydro-1,4-methanopyrido[2,3-b][1,4]diazepine-5-carboxamido)isonicotinic acid]: the Emax is greater than 150% and the “TRP Activity (EC1.5, concentration of test compound that results in 150% activation of SIRT1)” value was “B (EC1.5 1-25 μM)”.

`O=C(NCc1cccnc1)c1ccc2c(n1)N(C(=O)Nc1cc(OC[C@H](O)CO)ccn1)[C@H]1CCN2C1` [Example 226, (4S)—N5-(4-((R)-2,3-dihydroxypropoxy)pyridin-2-yl)-N7-(pyridin-3-ylmethyl)-3,4-dihydro-1,4-methanopyrido[2,3-b][1,4]diazepine-5,7(2H)-dicarboxamide]: the Emax is greater than 150% and the “TRP Activity (EC1.5, concentration of test compound that results in 150% activation of SIRT1)” value was “B (EC1.5 1-25 μM)”.

Consider `CN(C)CCOc1ccnc(NC(=O)N2c3nc(C(=O)NCC(F)(F)F)ccc3N3CC[C@H]2C3)c1` [Example 227, (4S)—N5-(4-(2-(dimethylamino)ethoxy)pyridin-2-yl)-N7-(2,2,2-trifluoroethyl)-3,4-dihydro-1,4-methanopyrido[2,3-b][1,4]diazepine-5,7(2H)-dicarboxamide], for which the Emax is greater than 150% and the “TRP Activity (EC1.5, concentration of test compound that results in 150% activation of SIRT1)” value was “B (EC1.5 1-25 μM)”.

Regarding `CONC(=O)c1ccc2c(n1)N(C(=O)Nc1ccccn1)[C@H]1CCN2C1` [Example 228, (4S)—N7-methoxy-N5-(pyridin-2-yl)-3,4-dihydro-1,4-methanopyrido[2,3-b][1,4]diazepine-5,7(2H)-dicarboxamide], the Emax was greater than 150% and the “TRP Activity (EC1.5, concentration of test compound that results in 150% activation of SIRT1)” value was “B (EC1.5 1-25 μM)”.

Regarding `O=C(NC1CC1)c1ccc2c(n1)N(C(=O)Nc1cccnn1)[C@H]1CCN2C1` [Example 229, (4S)—N7-cyclopropyl-N5-(pyridazin-3-yl)-3,4-dihydro-1,4-methanopyrido[2,3-b][1,4]diazepine-5,7(2H)-dicarboxamide], the Emax was greater than 150% and the “TRP Activity (EC1.5, concentration of test compound that results in 150% activation of SIRT1)” value is listed as “B (EC1.5 1-25 μM)”.

In the case of `O=C(NCC(F)(F)F)c1ccc2c(n1)N(C(=O)Nc1ccc3[nH]cnc3c1)[C@H]1CCN2C1` [Example 231, (4S)—N5-(1H-benzo[d]imidazol-5-yl)-N7-(2,2,2-trifluoroethyl)-3,4-dihydro-1,4-methanopyrido[2,3-b][1,4]diazepine-5,7(2H)-dicarboxamide], the Emax was greater than 150% and the “TRP Activity (EC1.5, concentration of test compound that results in 150% activation of SIRT1)” value is recorded as “B (EC1.5 1-25 μM)”.

`O=C(NCC(F)(F)F)c1ccc2c(n1)N(C(=O)Nc1ccc3[nH]c(=O)[nH]c3c1)[C@H]1CCN2C1` [Example 232, (4S)—N5-(2-oxo-2,3-dihydro-1H-benzo[d]imidazol-5-yl)-N7-(2,2,2-trifluoroethyl)-3,4-dihydro-1,4-methanopyrido[2,3-b][1,4]diazepine-5,7(2H)-dicarboxamide]: the Emax is less than 150% and the “TRP Activity (EC1.5, concentration of test compound that results in 150% activation of SIRT1)” value was “C (EC1.5>25 μM)”.

In the case of `C[C@@H](NC(=O)c1ccc2c(n1)N(C(=O)Nc1ccc(OC[C@@H](O)CO)nn1)[C@H]1CCN2C1)C(F)(F)F` [Example 234, (4S)—N5-(6-((S)-2,3-dihydroxypropoxy)pyridazin-3-yl)-N7-((R)-1,1,1-trifluoropropan-2-yl)-3,4-dihydro-1,4-methanopyrido[2,3-b][1,4]diazepine-5,7(2H)-dicarboxamide], the Emax was greater than 150% and the “TRP Activity (EC1.5, concentration of test compound that results in 150% activation of SIRT1)” value was “A (EC1.5<1 μM)”.

For the molecule `O=C(NCc1cccc(F)c1)c1ccc2c(n1)N(C(=O)Nc1ccccn1)[C@H]1CCN2C1` [Example 236, (4S)—N7-(3-fluorobenzyl)-N5-(pyridin-2-yl)-3,4-dihydro-1,4-methanopyrido[2,3-b][1,4]diazepine-5,7(2H)-dicarboxamide], the Emax was greater than 150% and the “TRP Activity (EC1.5, concentration of test compound that results in 150% activation of SIRT1)” value is “A (EC1.5<1 μM)”.

Take `C[C@@H](NC(=O)c1ccc2c(n1)N(C(=O)Nc1cnccn1)[C@H]1CCN2C1)C(F)(F)F` [Example 237, (4S)—N5-(pyrazin-2-yl)-N7-((R)-1,1,1-trifluoropropan-2-yl)-3,4-dihydro-1,4-methanopyrido[2,3-b][1,4]diazepine-5,7(2H)-dicarboxamide]: the Emax was greater than 150% and the “TRP Activity (EC1.5, concentration of test compound that results in 150% activation of SIRT1)” value is recorded as “A (EC1.5<1 μM)”.

As to `Cc1cc(NC(=O)N2c3nc(C(=O)N[C@H](C)C(F)(F)F)ccc3N3CC[C@H]2C3)ncc1F` [Example 238, (4S)—N5-(5-fluoro-4-methylpyridin-2-yl)-N7-((R)-1,1,1-trifluoropropan-2-yl)-3,4-dihydro-1,4-methanopyrido[2,3-b][1,4]diazepine-5,7(2H)-dicarboxamide], the Emax was greater than 150% and the “TRP Activity (EC1.5, concentration of test compound that results in 150% activation of SIRT1)” value is recorded as “A (EC1.5<1 μM)”.

Take `C[C@@H](NC(=O)c1ccc2c(n1)N(C(=O)Nc1ncc(F)cc1F)[C@H]1CCN2C1)C(F)(F)F` [Example 239, (4S)—N5-(3,5-difluoropyridin-2-yl)-N7-((R)-1,1,1-trifluoropropan-2-yl)-3,4-dihydro-1,4-methanopyrido[2,3-b][1,4]diazepine-5,7(2H)-dicarboxamide]: the Emax was greater than 150% and the “TRP Activity (EC1.5, concentration of test compound that results in 150% activation of SIRT1)” value is reported as “B (EC1.5 1-25 μM)”.
